Results as given in patent US6605115B1, “Method and composition for inhibiting cardiovascular cell proliferation” (Board of Trustees of the Leland Stanford Junior University, priority 1999, dated 2003).

How the values were obtained:
[1] = test system: vein graft segments; experiment: Ex vivo NOx production from vein graft harvested 3 days after surgery; format: in vivo, New Zealand white rabbits; details: A23187, 10.0 μM
Method: Vein grafts were harvested 3 days after surgery, as described in Example 7. Vein graft segments were incubated in 1 me of Hanks' buffered saline solution (HBSS, Irvine Scientific) containing Ca^2+ (1.0 mM) and L-arginine (100 μM, Sigma) at 37° C. for 2 hours. NOx (nitrate and nitrite) production was measured either in the absence (basal) or presence (stimulated) of calcium ionophore (A23187, 10.0 μM, Sigma). Samples of the medium (80 μL) were collected, and NOx measurement was performed using the Griess reaction facilitated by a commercial calorimetric assay (Cayman Chemical).

[2] = test system: cytokine-stimulated VSMC; experiment: Effect of arginine oligomers on NO production in cytokine-stimulated VSMC (NO2, Griess); format: cell-based, rat
Method: Rat VSMCs were prepared from the media layer of thoracic aorta of Sprague-Dawley rats by the explant method. The cells were cultured in Dulbecco's modified Eagle's medium (DMEM, Gibco BRL, Gaithersburg, Md.) containing 10% fetal calf serum, 100 U/ml penicillin and 100 μg/ml streptomycin at 37° C. under a humidified atmosphere containing 5% CO2. After subconfluent growth, cells were cultured with MEM Select Amine Kit (Gibco BRL, Gaithersburg, Md.) to be treated by specific concentrations of extracellular free L-arginine. Experiments were performed using cultured cells at passage levels of 5-10.
Extracellular NO production was measured as its stable oxidative metabolite, nitrite (NO2). At the end of each incubation, samples of the medium (80 μl) were collected, and NO2 measurement was performed using the Griess reaction facilitated by a commercial calorimetric assay (Cayman Chemical, Ann Arbor, Mich.). Values of NO2 production were corrected with relative cell count assessed by a cell proliferation kit II (XTT) (Boeheringer Mannheim, Germany).
Subconfluent cells were pre-incubated with medium containing 100 μM arginine for 24 hours. The cells were then transiently pretreated with each arginine polymer for 30 minutes. After translocation, the cells were incubated with a mixture of IFN-γ (100 U/ml) and LPS (100 μg/ml) in medium containing 100 μM L-arginine for another 24 hours. In some experiments, L-NMMA (1 mM), a nitric oxide synthase inhibitor, was added to the medium.

[3] = test system: rat vascular smooth muscle cells (VSMC); experiment: Translocation of biotin-labeled peptides into cultured VSMC (HRP-streptavidin/DAB staining); format: cell-based; details: for internalized biotin signal (staining): 30 minutes
Method: In the studies described below, transmembrane transport and cellular uptake of oligomers was assessed by incubating cells or tissue with biotin-oligomer conjugates, followed by treatment with horseradish peroxidase (HRP)-conjugated streptavidin and subsequent incubation with DAB (3,3′-diaminobenzidine), a substrate of the enzyme which produces a highly colored product.
Cultured VSMC (vascular smooth muscle cells) were treated, as described in Example 2, with biotinylated oligomers of arginine or lysine. After incubation, the cells were treated with HRP-streptavidin conjugate, then with DAB. Staining by the oxidation product was observed using light microscopy.
Rat VSMCs were grown on glass microscope slide chambers (Nunc Inc., Naperville, Ill.). Subconfluent cells were washed and placed in serum-free medium. After 2 hours, cells were treated with bR7, or bK7 (0.1 μM, 1.0 μM, 10 μM), at 37° C. for 30 minutes. To assess the role of endocytosis in cellular uptake of the peptides, experiments were performed at 4° C., and also in the presence of sodium azide (1.0%) for 30 minutes prior to exposure to the peptides. To assess the involvement of the basic amino acid transport system y+ in the translocation of peptides into the cell, experiments were performed in the presence of excess extracellular L-arginine (10 mM).
After 30 minutes of incubation with the peptides, cells were washed 3 times with phosphate-buffered saline (PBS), fixed for 5 minutes at −20° C. in ethanol/acetone, washed 3 times in PBS, incubated for 30 minutes with a peroxidase suppressor (ImmunoPure, Pierce, Rockford, Ill.) to block endogenous peroxidase activity and nonspecific binding, washed, and then incubated with 5 μg/ml of horseradish peroxidase (HRP) conjugated strepavidin (Pierce, Rockford, Ill.) for 30 minutes. Cells were washed 3 times with PBS, and a substrate of HRP, DAB (Sigma, St. Louis, […].), was added to the cells. The reaction was terminated by washing in distilled water after a 60-second incubation with DAB. Cell preparations were observed by conventional light microscopy (see FIG. 1). This experimental protocol was repeated 3 times.

[4] = test system: human umbilical vein endothelial cells (ECV304); experiment: In vitro translocation of biotin-labeled peptides into endothelial cells; format: cell-based; details: endothelial cells
Method: Spontaneously transformed human umbilical vein endothelial cells (ECV304, ATCC) were cultured in medium M199 (Irvine Scientific) containing 10% fetal bovine serum (FBS), 100 IU/ml penicillin and 100 μg/ml of streptomycin (Gibco BRL). Confluent cells were washed and placed in serum-free medium. After 2 hours, the cells were incubated in presence of biotin labeled peptides, as bL-R7, or bD-R7, or bL-K7 (0.1, 1.0, and 10.0 μM). After 30 minutes of incubation, cells were washed 3 times with phosphate-buffered saline (PBS), fixed in ethanol/acetone; washed in PBS; incubated for 30 minutes with peroxidase suppressor (ImmunoPure, Pierce) to block endogenous peroxidase activity; and then incubated with 5 μg/ml of horse-radish peroxidase (HRP) conjugated strepavidin (Pierce) for 30 minutes. Substrate of HRP, diaminobenzidine (DAB, Sigma), was added to the cells. The reaction was terminated by washing in distilled water after a 60-second incubation. This experiment was repeated 3 times.

[5] = test system: rabbit carotid artery segment; experiment: Ex vivo translocation study, carotid artery segments; set-up: species or system New Zealand white rabbits
Method: After incubation with biotin labeled oligomer, vascular segments were washed, then frozen in OCT compound (Miles Scientific). Frozen sections, 5 μm thick, were fixed with acetone for 10 minutes. Internalized biotin was detected using the staining procedure described in Example 2. Methyl green was used for nuclear counter staining.
To quantify the efficiency of nuclear translocation, the numbers of both DAB positive nuclei and total nuclei were counted in the intima and media separately at ×400 magnification with a video image analysis system (Automatrix). The frequency of nuclear translocation was expressed as the percent staining of nuclei, defined as the ratio of the number of DAB positive nuclei to that of all nuclei, in the intima and media. Each protocol was repeated 4 times.
Both carotid artery and jugular vein segments of male New Zealand white rabbits were used. To test the dose dependence of R7 translocation, vascular segments were incubated for 30 minutes with either bL-R7 or bD-R7 solution (0.1, 1.0, and 10.0 μM) in serum-free Dulbecco's minimal essential medium (DMEM) (Gibco BRL). To test the incubation time dependence, vascular segments were incubated with 10.0 μM of biotin labeled R7 solution for 10 seconds, 60 seconds, 5 minutes, 10 minutes, and 30 minutes. Furthermore, to determine the ability of R7 to penetrate through the vessel wall, vascular segments were ligated one end, R7 containing medium was instilled, and the other end ligated so as to expose only the luminal surface to R7. The luminal surface of the vascular segment was exposed to bL-R7 or bD-R7 (10.0 μM) for 30 minutes. To test the temperature dependence of translocation, vascular segments were incubated with 10.0 μM of biotin labeled R7 solutions at 37° C. or 4° C. To determine the disappearance time course of translocated R7, vascular segments were incubated with biotin labeled R7 solutions (10.0 μM) at 37° C. for 30 minutes, and then reincubated in DMEM with 10% FBS up to 5 days. Vascular segments were harvested at 1, 2 and 5 days after initial incubation.

[6] = test system: coronary vessels of transplanted PVG rat donor hearts; experiment: Heart transplant study (graft coronary artery disease, GCAD); format: in vivo; details: for % affected vessels / % luminal narrowing / I/M ratio: intracoronary 50 uM, 30 minutes
Method: In this study, PVG rat donor hearts (n=48) were transplanted heterotopically into the abdomen of ACI recipients. Donor hearts received either intracoronary PBS or intracoronary 50 uM (L)-arginine polymer (L-R5 or L-R9) for 30 minutes. (D-arginine polymers were not included in this study.) Each of these groups was further divided into 60 and 90 day study animals (n=6 each). Percent luminal narrowing, intima to media ratio (I/M), and percent affected vessels were determined as described in Example 11, below. Transfection efficiency was determined by infusing biotinylated R5 and R9, as in the preceding studies, and calculating the percentage of biotin positive nuclei divided by total number of nuclei.
PVG rat donor hearts (n=48) were transplanted heterotopically into the abdomen of ACI recipients. Donor hearts received either intracoronary PBS or intracoronary 50 uM (L)-arginine polymer (L-R5 or L-R9) for 30 minutes. Each group was further divided into 60 and 90 day study animals (n=6 each). Tissue cross sections (5μ) were stained with EVG (Elastica-van Gieson) preparation, and vessels were scored using computerized morphometry for analysis of % luminal narrowing, intima to media ratio (I/M), and % affected vessels. Transfection efficiency was determined by infusing biotinylated R5 and R9, as in preceding examples, and calculating the percentage of biotin positive nuclei divided by total number of nuclei. Results are described in Section IV C, above.

Compound: CNc1ccc2oc(C[C@H]3O[C@@]4(CC[C@H]3C)O[C@H]([C@H](C)C(=O)c3ccc[nH]3)[C@H](C)C[C@H]4C)nc2c1C(=O)O [Calcium ionophore, reference compound]
- NOx production by the vein grafts on calcium ionophore stimulation [1]: did not significantly affect the NOx production

Compound: CNC(=N)NCCC[C@H](N)C(=O)O [L-NMMA, N^G-monomethyl L-arginine, reference compound]
- enhancement of NO production in R7 treated cells after NO synthase inhibitor ([2]; L-NMMA (1 mM) added to R7 treated cells): abolished

Compound: biotin-labeled heptaarginine [bR7]
- internalized biotin signal (staining) ([3]; 0.1 μM): internalized biotin was observed in all VSMCs
- internalized biotin signal (staining) ([3]; 10 μM, 37° C.): very intense staining, not only in the cytoplasm, but also in the nucleus of all VSMC
- efficacy of translocation at 4° C. ([3]; 4° C.): no apparent reduction was observed in the efficacy of bR7 translocation
- cytoplasmic and nuclear staining after sodium azide ([3]; cells exposed to 1% sodium azide for 30 minutes prior to incubation): neither cytoplasmic nor nuclear staining was observed
- translocation in presence of free L-arginine ([3]; free L-arginine up to 10 mM added): Nor was translocation of bR7 inhibited
- internalized biotin ([4]; 0.1 μM): internalized biotin was observed in the cytoplasm of all EC
- internalized biotin ([4]; 10.0 μM for 30 minutes): internalized biotin was detected not only in the cytoplasm but also in the nucleus of virtually all exposed endothelial cells
- speed or efficacy of translocation into vascular tissue at 4° C. ([5]; 10.0 μM, 4° C.): no apparent reduction in the speed or efficacy
- biotin signals after intraluminal instillation ([5]; 10.0 μM, 30 minutes of intraluminal exposure): biotin signals were detected throughout the vessel, including the adventitial cells
- biotin signal in vascular cells ([5]; carotid artery, 10.0 μM, 30 minutes): a distinct biotin signal was observed in virtually all intimal cells, medial cells, and adventitial cells
- biotin staining by day 5 ([5]; day 5 after exposure (10.0 μM), serum containing medium): No significant positive staining

Compound: hepta-L-lysine [K7, reference compound]
- NO production ([2]; 100 μM, 30 minutes): did not increase the NO production

Compound: nona-L-arginine [R9]
- NO production ([2]; pretreatment 30 minutes, then IFN-γ and LPS, 100 μM extracellular L-arginine): dose-dependent increases in NO production at doses as low as 10 μM
- degree of enhancement of NO production ([2]; pretreatment 30 minutes, vs. vehicle treated cytokine-stimulated cells): 44±5.2%
- GCAD compared to PBS controls ([6]; 60 and 90 days): significant reduction in GCAD
- % affected vessels ([6]; 60 days): 6.5 ± 6.9%
- % luminal narrowing ([6]; 60 days): 3.2 ± 3.8%
- I/M ratio ([6]; 60 days): .03 ± .04
- % affected vessels ([6]; 90 days): 4.9 ± 7.1%
- % luminal narrowing ([6]; 90 days): 1.6 ± 3.3%
- I/M ratio ([6]; 90 days): .01 ± .02
- transfection of coronary vessels ([6]; biotinylated oligomer infused): marked transfection of the intima and media of coronary vessels
